2 compounds from patent US20060258739A1, “Dihydrobenzofuran derivatives and uses therof” (Wyeth, priority 2005, published 2006) can be followed below.

The Kd is the constant that tells how readily two partners part at equilibrium. As a reminder, the Ki is a measure of affinity in units of concentration, obtained from inhibition or displacement.

The target in the assay is T1, human 5-hydroxytryptamine-2C (h5-HT2C) receptor (Homo sapiens, UniProt P28335).
T1 construct: expressed in transfected cells; host or cells: CHO (Chinese Hamster Ovary) cells; membrane preparation
T1 sequence (P28335 33-458): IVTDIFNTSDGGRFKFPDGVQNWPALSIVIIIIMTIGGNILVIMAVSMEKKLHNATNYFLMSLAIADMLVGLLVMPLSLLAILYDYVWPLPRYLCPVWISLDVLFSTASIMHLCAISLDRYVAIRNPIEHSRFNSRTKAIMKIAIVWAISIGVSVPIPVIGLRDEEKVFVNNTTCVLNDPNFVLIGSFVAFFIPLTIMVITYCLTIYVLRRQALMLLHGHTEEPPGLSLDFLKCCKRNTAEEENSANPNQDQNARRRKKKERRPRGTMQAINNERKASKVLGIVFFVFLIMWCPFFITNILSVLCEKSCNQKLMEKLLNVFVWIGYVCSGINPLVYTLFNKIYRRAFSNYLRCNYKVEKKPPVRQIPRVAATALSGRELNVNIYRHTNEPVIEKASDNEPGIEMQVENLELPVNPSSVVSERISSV
Kind of assay: [125I]DOI radioligand binding to membranes of CHO cells expressing the h5-HT2C receptor.

As to `COc1cc(CC(C)N)c(OC)cc1I` (centres unmarked) [[^125I] DOI], where the note is “read-out: dissociation constant, KD of [125I] DOI, saturation binding with increasing concentrations of [125I]DOI”, the Kd came to 0.4 nM.

Regarding `CSc1ccc2c(c1)C(N1CCN(C)CC1)Cc1ccccc1S2` (centres unmarked) [Methiothepin], the Ki (displacement of [125I]DOI, CHO cell membranes, room temperature 60 min, read-out: Ki (95% confidence interval)) stood at 4.6 nM.
